In patent US20230027066A1 (Urovant Sciences GmbH, priority 2019, published 2023):

Legend:
[1] = 40-week extension study (52 weeks), adverse events
From the text: Approximately 500 men and women with overactive bladder who completed 12 weeks in the parent study were permitted to enroll, at approximately 110 study sites in the U.S.
Secondary endpoints were evaluation of CFB at Week 52 in average number of micturitions, Urge Urinary Incontinence (UUI) episodes, urgency episodes, and total urinary incontinence episodes. All CFB calculations used the parent study Baseline value.

[2] = test system: men and women with overactive bladder; test: extension study, OAB-q LF coping subscore at Week 52; assay type: in vivo, human; conditions: for OAB-q LF Coping Subscore, Week 52 Mean: Full Analysis Set Extension; for OAB-q LF Coping Subscore, Change from Baseline Mean at Week 52: baseline from parent study
[3] = From the text: A placebo group was included in the main study, and a group that received tolterodine monotherapy was included in the main study and in the extension.
[4] = Phase 3 study (75 mg), post-void residual urine volume (PVR); assay type: in vivo, human
From the text: The risk of acute urinary retention or morbidities related to an increase in Post-Void Residual (PVR) is a concern with antimuscarinic therapy that promotes smooth muscle relaxation by inhibiting acetylcholine-induced smooth muscle contraction. If, during contraction, the bladder cannot generate enough pressure to overcome the outlet resistance in the urethra, either because of poor detrusor contractility or profound obstruction (most commonly from BPH), acute urinary retention or incomplete emptying of the bladder may result.
The volume of urine that remains in the bladder after voiding (PVR) is an objective measurement that may serve as a proxy for impaired ability to void.
PVR were performed via ultrasound at the visits indicated in the Schedule of Activities.

[5] = Males with medical history of BPH

For Cc1ccc(O)c([C@H](CCN(C(C)C)C(C)C)c2ccccc2)c1 [Tolterodine ER, tolterodine, reference compound], the “Discontinued the study: Death” value ([1]; 40-Weeks arm) was 0 n (%), the “Discontinued the study: Death” value ([1]; 52-Weeks arm) was 0 n (%) and the “SAEs resulting in death (not considered related by Investigator or Sponsor)” value ([1]; Overall groups) was 0 n (%). For the same molecule, the “Discontinued the study: Death” value ([1]; Overall groups, Randomized Set Extension) was 0 n (%), the “Discontinued the study: Adverse Event” value ([1]; both, human, in vivo) was 8 (3.4) n (%) and the “Patients with at least one treatment-emergent adverse event” value ([1]; both, human, in vivo) was 126 (54.3) n (%). For the same molecule, the “Patients with at least one treatment-emergent serious AE” value ([1]; both, human, in vivo) was 10 (4.3) n (%), the “SAEs considered treatment-related by the investigator” value ([1]; both, human, in vivo) was 2 (0.9) n (%) and the “SAEs: Hospitalization” value ([1]; both, human, in vivo) was 9 (3.9) n (%). The “SAEs: Other serious criteria” value ([1]; both, human, in vivo) was 2 (0.9) n (%), the “Discontinued the study: Adverse Event” value ([1]; both, human, in vivo, 40 weeks) was 4 (4.4) n (%) and the “AE leading to discontinuation of study drug: Acute prerenal failure” value ([1]; both, human, in vivo, 52 weeks) was 1 (0.4) n (%). The “AE leading to discontinuation of study drug: Amnesia” value ([1]; both, human, in vivo, 52 weeks) was 0 n (%), the “AE leading to discontinuation of study drug: Any” value ([1]; both, human, in vivo, 52 weeks) was 8 (3.4) n (%) and the “AE leading to discontinuation of study drug: Aortic stenosis” value ([1]; both, human, in vivo, 52 weeks) was 1 (0.4) n (%). For the same molecule, the “AE leading to discontinuation of study drug: Atrial fibrillation” value ([1]; both, human, in vivo, 52 weeks) was 1 (0.4) n (%), the “AE leading to discontinuation of study drug: Blood creatinine increased” value ([1]; both, human, in vivo, 52 weeks) was 0 n (%) and the “AE leading to discontinuation of study drug: Blood urea increased” value ([1]; both, human, in vivo, 52 weeks) was 0 n (%). The “AE leading to discontinuation of study drug: Cardiac failure” value ([1]; both, human, in vivo, 52 weeks) was 1 (0.4) n (%), the “AE leading to discontinuation of study drug: Cardiomyopathy” value ([1]; both, human, in vivo, 52 weeks) was 1 (0.4) n (%) and the “AE leading to discontinuation of study drug: Chronic kidney disease” value ([1]; both, human, in vivo, 52 weeks) was 1 (0.4) n (%). The “AE leading to discontinuation of study drug: Constipation” value ([1]; both, human, in vivo, 52 weeks) was 0 n (%), the “AE leading to discontinuation of study drug: Diarrhea” value ([1]; both, human, in vivo, 52 weeks) was 0 n (%) and the “AE leading to discontinuation of study drug: Dizziness” value ([1]; both, human, in vivo, 52 weeks) was 1 (0.4) n (%). For the same molecule, the “AE leading to discontinuation of study drug: Dry eye” value ([1]; both, human, in vivo, 52 weeks) was 1 (0.4) n (%), the “AE leading to discontinuation of study drug: Dyspnoea” value ([1]; both, human, in vivo, 52 weeks) was 1 (0.4) n (%) and the “AE leading to discontinuation of study drug: Haematuria” value ([1]; both, human, in vivo, 52 weeks) was 1 (0.4) n (%). The “AE leading to discontinuation of study drug: Headache” value ([1]; both, human, in vivo, 52 weeks) was 1 (0.4) n (%), the “AE leading to discontinuation of study drug: Intervertebral disc degeneration” value ([1]; both, human, in vivo, 52 weeks) was 1 (0.4) n (%) and the “AE leading to discontinuation of study drug: Mitral valve incompetence” value ([1]; both, human, in vivo, 52 weeks) was 1 (0.4) n (%). The “AE leading to discontinuation of study drug: Osteoarthritis” value ([1]; both, human, in vivo, 52 weeks) was 1 (0.4) n (%), the “AE leading to discontinuation of study drug: Pulmonary embolism” value ([1]; both, human, in vivo, 52 weeks) was 1 (0.4) n (%) and the “AE leading to discontinuation of study drug: Sinus tachycardia” value ([1]; both, human, in vivo, 52 weeks) was 1 (0.4) n (%). The “AE leading to discontinuation of study drug: Tricuspid valve incompetence” value ([1]; both, human, in vivo, 52 weeks) was 1 (0.4) n (%), the “AE: Anaemia” value ([1]; both, human, in vivo, 52 weeks) was 2 (0.9) n (%) and the “AE: Atrial fibrillation” value ([1]; both, human, in vivo, 52 weeks) was 1 (0.4) n (%). The “AE: Back pain” value ([1]; both, human, in vivo, 52 weeks) was 3 (1.3) n (%), the “AE: Blood pressure increased” value ([1]; both, human, in vivo, 52 weeks) was 4 (1.7) n (%) and the “AE: Bronchitis” value ([1]; both, human, in vivo, 52 weeks) was 3 (1.3) n (%). For the same molecule, the “AE: Constipation” value ([1]; both, human, in vivo, 52 weeks) was 6 (2.6) n (%), the “AE: Diarrhea” value ([1]; both, human, in vivo, 52 weeks) was 4 (1.7) n (%) and the “AE: Dizziness” value ([1]; both, human, in vivo, 52 weeks) was 2 (0.9) n (%). The “AE: Dry mouth” value ([1]; both, human, in vivo, 52 weeks) was 12 (5.2) n (%), the “AE: Fatigue” value ([1]; both, human, in vivo, 52 weeks) was 0 n (%) and the “AE: Headache” value ([1]; both, human, in vivo, 52 weeks) was 9 (3.9) n (%). The “AE: Hyperglycemia” value ([1]; both, human, in vivo, 52 weeks) was 2 (0.9) n (%), the “AE: Hypertension” value ([1]; both, human, in vivo, 52 weeks) was 20 (8.6) n (%) and the “AE: Hypotension” value ([1]; both, human, in vivo, 52 weeks) was 0 n (%). The “AE: Musculoskeletal pain” value ([1]; both, human, in vivo, 52 weeks) was 1 (0.4) n (%), the “AE: Nasopharyngitis” value ([1]; both, human, in vivo, 52 weeks) was 12 (5.2) n (%) and the “AE: Nausea” value ([1]; both, human, in vivo, 52 weeks) was 7 (3.0) n (%). For the same molecule, the “AE: Residual urine volume increased” value ([1]; both, human, in vivo, 52 weeks) was 3 (1.3) n (%), the “AE: Syncope” value ([1]; both, human, in vivo, 52 weeks) was 1 (0.4) n (%) and the “AE: Tachycardia (Sinus Tachycardia)” value ([1]; both, human, in vivo, 52 weeks) was 1 (0.4) n (%). For the same molecule, the “AE: Upper respiratory tract infection” value ([1]; both, human, in vivo, 52 weeks) was 1 (0.4) n (%), the “AE: Urinary retention” value ([1]; both, human, in vivo, 52 weeks) was 1 (0.4) n (%) and the “AE: Urinary tract infection” value ([1]; both, human, in vivo, 52 weeks) was 17 (7.3) n (%). For the same molecule, the “Discontinued the study: Adverse Event” value ([1]; both, human, in vivo, 52 weeks) was 4 (2.8) n (%), the “OAB-q LF Coping Subscore, Week 52 Mean” value ([2]; 40-Week treatment group) was 82.5 and the “OAB-q LF Coping Subscore, Change from Baseline Mean at Week 52” value ([2]; 40-Week treatment group) was 24.7. The “OAB-q LF Coping Subscore, Week 52 Mean” value ([2]; 52-Week treatment group) was 81.8, the “OAB-q LF Coping Subscore, Change from Baseline Mean at Week 52” value ([2]; 52-Week treatment group) was 22.1 and the frequency of injuries ([3]; Phase 2 study, tolterodine arm vs vibegron) was 2.1%. The “SAEs reported in treatment group, number” value ([3]; tolterodine 4 mg, main study) was 3, the Accidental overdose ([3]; tolterodine ER 4 mg) was 6 (2.3) n (%) and the Alanine aminotransferase increased ([3]; tolterodine ER 4 mg) was 1 (0.4) n (%). For the same molecule, the Arthralgia ([3]; tolterodine ER 4 mg) was 3 (1.2) n (%), the Aspartate aminotransferase increased ([3]; tolterodine ER 4 mg) was 0 (0.0) n (%) and the Constipation ([3]; tolterodine ER 4 mg) was 5 (1.9) n (%). For the same molecule, the Diarrhea ([3]; tolterodine ER 4 mg) was 9 (3.5) n (%), the “Discontinuation due to AE” value ([3]; tolterodine ER 4 mg) was 4 (1.6) n (%) and the “Discontinuation due to drug-related AE” value ([3]; tolterodine ER 4 mg) was 0 n (%). For the same molecule, the Dizziness ([3]; tolterodine ER 4 mg) was 5 (1.9) n (%), the “Drug-related AE” value ([3]; tolterodine ER 4 mg) was 42 (16.3) n (%) and the Dry eye ([3]; tolterodine ER 4 mg) was 10 (3.9) n (%). For the same molecule, the Dry mouth ([3]; tolterodine ER 4 mg) was 22 (8.6) n (%), the Dysuria ([3]; tolterodine ER 4 mg) was 3 (1.2) n (%) and the Fatigue ([3]; tolterodine ER 4 mg) was 6 (2.3) n (%). The Headache ([3]; tolterodine ER 4 mg) was 9 (3.5) n (%), the Nasopharyngitis ([3]; tolterodine ER 4 mg) was 4 (1.6) n (%) and the Nausea ([3]; tolterodine ER 4 mg) was 6 (2.3) n (%). The Osteoarthritis ([3]; tolterodine ER 4 mg) was 0 (0.0) n (%), the Pain in extremity ([3]; tolterodine ER 4 mg) was 1 (0.4) n (%) and the “Serious AE” value ([3]; tolterodine ER 4 mg) was 3 (1.2) n (%). For the same molecule, the Sinusitis ([3]; tolterodine ER 4 mg) was 1 (0.4) n (%), the “Subjects with ≥1 AE” value ([3]; tolterodine ER 4 mg) was 116 (45.1) n (%) and the Urinary tract infection ([3]; tolterodine ER 4 mg) was 12 (4.7) n (%). For the same molecule, the “PVR category at Week 12 <100 mL, patients” value ([4]; Females) was 94.4%, the “PVR category at Week 12 ≥100 mL to <200 mL, patients” value (shortened to “PVR category at Week 12 ≥100 mL”) ([4]; Females) was 5.3% and the “PVR category at Week 12 ≥200 mL to <350 mL, patients” value (“PVR category at Week 12 ≥200 mL” for short) ([4]; Females) was 0.3%. The “PVR category at Week 12 ≥350 mL, patients” value ([4]; Females) was 0, the “PVR, Mean Change from Baseline at Week 12 (SD)” value (“PVR, Mean Change … (SD)” below) ([4]; Females) was 1.9 (40.24) mL and the “PVR category at Week 12 <100 mL, patients” value ([4]; Males) was 85.2%. For the same molecule, the “PVR category at Week 12 ≥100 mL” value ([4]; Males) was 11.5%, the “PVR category at Week 12 ≥200 mL” value ([4]; Males) was 3.3% and the “PVR category at Week 12 ≥350 mL, patients” value ([4]; Males) was 0. The “PVR, Mean Change … (SD)” value ([4]; Males) was 10.2 (44.24) mL, the “PVR category at Week 12 <100 mL, patients” value [4, 5] was 71.4% and the “PVR category at Week 12 ≥100 mL” value [4, 5] was 28.6%. The “PVR category at Week 12 ≥200 mL” value [4, 5] was 0%, the “PVR category at Week 12 ≥350 mL, patients” value [4, 5] was 0 and the “PVR, Mean Change … (SD)” value [4, 5] was 3.7 (50.64) mL. The “PVR category at Week 12 <100 mL, patients” value ([4]; all patients) was 86.5%, the “PVR category at Week 12 ≥100 mL” value ([4]; all patients) was 5.8% and the “PVR category at Week 12 ≥200 mL” value ([4]; all patients) was 0.7%. For the same molecule, the “PVR category at Week 12 ≥350 mL, patients” value ([4]; all patients) was 0 and the “PVR, Mean Change … (SD)” value ([4]; all patients) was 3.1 (40.93) mL.
